Test results as given in publication PMC9052873 (Journal of medicinal chemistry, 2020).
Read-outs that look alike come from different tables or passages of the source.

How the values were obtained:
[1] = molecular target: T1, bovine PNMT (Bos taurus, UniProt P10938); conditions: read-out: PNMT Kis^PEA; bovine enzyme; ref [16]; cited from earlier work
T1 sequence (P10938 1-283): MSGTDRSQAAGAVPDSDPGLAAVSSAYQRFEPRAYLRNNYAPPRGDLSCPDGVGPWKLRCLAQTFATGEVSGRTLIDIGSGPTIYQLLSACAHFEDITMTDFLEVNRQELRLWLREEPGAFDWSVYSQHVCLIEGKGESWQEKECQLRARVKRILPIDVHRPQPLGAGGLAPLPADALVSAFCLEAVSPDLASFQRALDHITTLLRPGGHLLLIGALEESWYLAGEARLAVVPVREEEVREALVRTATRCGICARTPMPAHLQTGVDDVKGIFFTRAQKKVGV

[2] = molecular target: T2, human PNMT (hPNMT) (Homo sapiens, UniProt P11086); assay: radiochemical assay for hPNMT inhibitory potency
T2 sequence (P11086 1-282): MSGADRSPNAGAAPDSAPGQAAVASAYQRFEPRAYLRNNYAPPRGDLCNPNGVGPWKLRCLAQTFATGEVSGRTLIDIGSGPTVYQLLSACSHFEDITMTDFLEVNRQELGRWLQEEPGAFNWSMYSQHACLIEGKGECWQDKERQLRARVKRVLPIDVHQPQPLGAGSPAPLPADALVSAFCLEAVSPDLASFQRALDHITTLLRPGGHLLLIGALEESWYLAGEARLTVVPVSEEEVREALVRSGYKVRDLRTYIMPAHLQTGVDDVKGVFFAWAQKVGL

[3] = molecular target: PNMT; conditions: read-out: Ki^PEA; ref [85]; cited from earlier work
[4] = molecular target: T1, bovine PNMT; assay: PNMT inhibition, bovine enzyme; format: biochemical

Compound: NC(=O)C1Cc2ccccc2CN1 (centres unmarked) [Compound 13]
- Ki [1]: 31 µM

Compound: tris(hydroxymethyl)amino methane
- inhibition in PNMT assays ([2]; buffer component, prompted a switch to phosphate buffer): inhibition being observed

Compound: c1ccc2c(c1)CCNC2 [Compound 10, 1,2,3,4-tetrahydroisoquinoline]
- Ki [3]: 10 µM

Compound: NCC1Cc2ccccc2CN1 (centres unmarked) [Compound 14]
- Ki [4]: 1.4 µM
- greater potency as an inhibitor of hPNMT than 13 ([2]; 14 (aminomethyl) versus 13 (aminocarbonyl)): over 20 fold
